From patent publication US20070148184A1, “Survivin-derived peptides and use thereof” (priority 2003, published 2007)
“And” between values parts separate entries of the source, which are not always exact repeats. Equal values may be shown once. “Also recorded” adds a separate entry of the source. Read-outs that look alike come from different tables or passages of the source. Residues, ends and D or L forms follow the SMILES beside them. No end group written: not given here.

Legend:
HLA-A3 = HLA-A3 (Homo sapiens, UniProt P04439); test: Assembly assay, HLA-A3; type: binding; conditions: for EC50: Table 4, HLA-A3, read-out: C50
Method: (§1) The binding affinity of synthetic peptides (Invitrogen, Carlsbad, Calif., USA) to HLA-A1, -A2, A3, or -A11 molecules metabolically labeled with [^35S]-methionine was measured in the assembly assay, as described previously (12). The assay is based on peptide-mediated stabilization of empty HLA molecules released upon cell lysis, from the TAP-deficient cell lines. Stably folded HLA-molecules were immune-precipitated using the HLA class I-specific, conformation-dependent mAb W6/32, and separated by isoelectric focusing (IEF) gel electrophoresis. MHC heavy chain bands were quantified using the ImageGauge Phosphorimager program (FUJI photo film Co., Carrollton, Tex., USA). The intensity of the band is proportional to the amount of peptide-bound class I MHC complex recovered during the assay. Subsequently, the extent of stabilization of the HLA-molecule is directly related to the binding affinity of the added peptide. The peptide concentration used to analyze the recovery of the HLA-molecules was 40, 4, 0.4, 0.04 μM for HLA-A1 and HLA-A11, and 100, 10, 1, 0.1, 0.01 μM for HLA-A2 and HLA-A3. The C50 value was subsequently calculated for each peptide as the peptide concentration sufficient for half maximal stabilization.

HLA-A2 = molecular target: T1, HLA-A2 (Homo sapiens, UniProt P04439, D140Y/D185E/D98H/E176V/E277Q/G131W/G231S/I119V/I121R/I166T/I218V/L300P/L318F/N151K/N90K/P208A/P217A/Q86G/Q94H/R138H/R169H/T345S); test: Assembly assay for peptide binding to class I MHC, HLA-A2
T1 construct: stabilization of the class I molecules after loading of peptide to the peptide transporter deficient cell line T2; endogenous in cells; host or cells: T2 (TAP-deficient human hybrid cell line), metabolically labelled lysate
Method: This assembly assay is carried out as described previously (12,13), and it is based on stabilisation of the HLA molecule after loading of peptide to the peptide transporter deficient cell line T2. Subsequently, correctly folded stable HLA heavy chains are immunoprecipitated using conformation dependent antibodies and the peptide binding is quantitated.
Assembly assays for binding of the synthetic peptides to class I MHC molecules metabolically labeled with [35S]-methionine were carried out as described (12,13). The assembly assay is based on stabilization of the class I molecules after loading of peptide to the peptide transporter deficient cell line T2. Subsequently, correctly folded stable MHC heavy chains are immunoprecipitated using conformation-dependent antibodies. After IEF electrophoresis, gels were exposed to phosphoImager screens, and peptide binding was quantified using the Imagequant PhosphorImager program (Molecular Dynamics, Sunnyvale, Calif.).
as §1, with “Stably folded HLA-molecules were immune-precipitated using the HLA class I-specific, conformation-dependent mAb W6/32, and separated by isoelectric focusing (IEF) gel electrophoresis.” left out

[1] = tested on: peptide epitope-specific interferon-γ releasing effector cells; test: IFN-γ ELISPOT, Example 4 (PBL or TIL from cancer patients); type: cell-based, human
Method: To extend the sensitivity of the ELISPOT assay, PBL were stimulated once in vitro prior to analysis. At day 0, PBL or crushed lymph nodes were thawed and plated as 2×10^6 cells in 2 ml/well in 24-well plates (Nunc, Roskilde, Denmark) in x-vivo medium (Bio Whittaker, Walkersville, Md.), […] heat-inactivated human serum, and 2 mM of L-glutamine in the presence of 10 μM of peptide. Two days later 20 IU/ml recombinant interleukin-2 (IL-2) (Chiron, Ratingen, Germany) was added to the cultures. The cultured cells were tested for reactivity in the ELISPOT on day 10.
The ELISPOT assay was used to quantify peptide epitope-specific interferon-γ releasing effector cells as previously described (16). Briefly, nitrocellulose bottomed 96-well plates (MultiScreen MAIP N45, Millipore, Hedehusene, Denmark) were coated with anti-IFN-γ antibody (1-D1K, Mabtech, Nacka, Sweden). The wells were washed, blocked by X-vivo medium, and the cells were added in duplicates at different cell concentrations. The peptides were then added to each well and the plates were incubated overnight. The following day, media was discarded and the wells were washed prior to addition of biotinylated secondary antibody (7-B6-1-Biotin, Mabtech). The plates were incubated for 2 hours, washed, and avidin-alkaline phosphatase conjugate (Calbiochem, Life Technologies, Inc. San Diego, Calif., USA) was added to each well. The plates were incubated at room temperature for one hour, washed, and the enzyme substrate NBT/BCIP (DakoCytomation Norden A/S, Glostrup, Denmark) was added to each well and incubated at RT for 5-10 min. Upon the emergence of dark purple spots, the reaction was terminated by washing with tap-water. The spots were counted using the ImmunoSpot® Series 2.0 Analyzer (CTL Analyzers, LLC, Cleveland, US) and the peptide specific CTL frequency could be calculated from the numbers of spot-forming cells. All assays were performed in duplicates for each peptide antigen.

[2] = Example 1, Table 1, read-out: C50 (peptide concentration for half maximal binding to HLA-A2)
[3] = Table 4, HLA-A2, 11-mers and controls, read-out: C50

## CC[C@H](C)[C@H](N)C(=O)N[C@@H](CC(C)C)C(=O)N[C@@H](CCCNC(=N)N)C(=O)NCC(=O)N[C@@H](CO)C(=O)N[C@H](C(=O)N[C@@H](C)C(=O)N[C@@H](Cc1c[nH]cn1)C(=O)N[C@@H](CCCCN)C(=O)O)C(C)C [C3, reference compound]
HLA-A3
  EC50: 0.1 to 0.3 µM and 0.1 µM

## CC(C)C[C@H](NC(=O)[C@H](CCCCN)NC(=O)[C@H](CC(C)C)NC(=O)[C@H](Cc1ccccc1)NC(=O)[C@H](CCC(=O)O)NC(=O)CNC(=O)[C@H](CC(C)C)NC(=O)[C@@H](NC(=O)[C@@H](N)CC(C)C)[C@@H](C)O)C(=O)O [Sur1]
HLA-A2; [2]
  EC50: > 100 µM
HLA-A2; Example 4, read-out: C50 (half maximal recovery of HLA-A2)
  EC50: > 100 µM

## CC[C@H](C)[C@H](NC(=O)[C@H](C)NC(=O)[C@H](CCCNC(=N)N)NC(=O)[C@H](CCCNC(=N)N)NC(=O)[C@@H](NC(=O)[C@@H](N)CCCCN)C(C)C)C(=O)N[C@@H](CCC(=O)O)C(=O)N[C@@H](CCC(N)=O)C(=O)N[C@@H](CC(C)C)C(=O)O [Sur3]
HLA-A2; [2]
  EC50: > 100 µM

## CC(C)C[C@H](NC(=O)[C@@H](N)[C@@H](C)O)C(=O)N1CCC[C@H]1C(=O)N1CCC[C@H]1C(=O)N[C@@H](C)C(=O)N[C@@H](Cc1c[nH]c2ccccc12)C(=O)N[C@@H](CCC(N)=O)C(=O)N1CCC[C@H]1C(=O)N[C@@H](CCCCN)C(=O)O [Sur5K9]
HLA-A3
  binding to HLA-A3, in words: high affinity
  EC50: 2 µM
[1]; HLA-A3, nine samples from melanoma patients (five PBL and four TIL)
  ELISPOT response: No responses were detected

## CC(C)C[C@H](NC(=O)[C@H](CCCCN)NC(=O)[C@H](CC(C)C)NC(=O)[C@@H](N)Cc1ccccc1)C(=O)N[C@@H](CC(=O)O)C(=O)N[C@@H](CCCNC(=N)N)C(=O)N[C@@H](CCC(=O)O)C(=O)N[C@@H](CCCNC(=N)N)C(=O)N[C@@H](C)C(=O)O [Sur6]
HLA-A2; [2]
  EC50: 30 µM

## CC(C)C[C@H](NC(=O)[C@H](Cc1ccccc1)NC(=O)[C@@H]1CCCN1C(=O)[C@H](CCC(N)=O)NC(=O)[C@H](Cc1c[nH]c2ccccc12)NC(=O)[C@H](C)NC(=O)[C@@H]1CCCN1C(=O)[C@@H]1CCCN1C(=O)[C@H](CC(C)C)NC(=O)[C@@H](N)[C@@H](C)O)C(=O)O [Sur8]
HLA-A2; [2]
  EC50: 30 µM

## CC(C)C[C@H](NC(=O)[C@H](CCCCN)NC(=O)[C@H](CC(C)C)NC(=O)[C@H](Cc1ccccc1)NC(=O)[C@H](CCC(=O)O)NC(=O)CNC(=O)[C@H](CC(C)C)NC(=O)[C@@H](NC(=O)[C@H](CC(C)C)NC(=O)[C@@H](N)CCC(=O)O)[C@@H](C)O)C(=O)O [Sur9]
HLA-A2; [2]
  EC50: 10 µM

## CC(C)C[C@H](NC(=O)[C@@H](N)CC(=O)O)C(=O)N[C@@H](C)C(=O)N[C@@H](CCC(N)=O)C(=O)N[C@@H](CS)C(=O)N[C@@H](Cc1ccccc1)C(=O)N[C@@H](Cc1ccccc1)C(=O)N[C@@H](CS)C(=O)N[C@@H](CCCCN)C(=O)O [Sur53K9] (H-DLAQCFFCK-OH; N-terminus and C-terminus assumed)
HLA-A3
  binding to HLA-A3, in words: no detectable effect

## CC(C)C[C@H](NC(=O)[C@H](CCC(=O)O)NC(=O)[C@H](CCCCN)NC(=O)[C@H](Cc1ccccc1)NC(=O)[C@H](CS)NC(=O)[C@H](Cc1ccccc1)NC(=O)[C@H](Cc1ccccc1)NC(=O)[C@H](CS)NC(=O)[C@H](CCC(N)=O)NC(=O)[C@H](C)NC(=O)[C@@H](N)CC(C)C)C(=O)O [Sur54-64] (H-LAQCFFCFKEL-OH; N-terminus and C-terminus assumed)
HLA-A2; Example 4
  C50 (half maximal recovery of HLA-A2): did not bind

## CC(C)C[C@H](NC(=O)[C@H](CCC(=O)O)NC(=O)[C@H](CCC(=O)O)NC(=O)[C@H](Cc1ccccc1)NC(=O)[C@H](CCC(N)=O)NC(=O)[C@H](CCCCN)NC(=O)[C@H](CCCCN)NC(=O)[C@@H](NC(=O)[C@H](CO)NC(=O)[C@H](CC(C)C)NC(=O)[C@@H](N)Cc1ccccc1)C(C)C)C(=O)O [Sur86-96]
[1]; HLA-A2, ten cancer patients analyzed
  patients with CTL response in PBL: no responses could be detected

## CC[C@H](C)[C@H](N)C(=O)N[C@@H](CC(C)C)C(=O)N[C@@H](CCCCN)C(=O)N[C@@H](CCC(=O)O)C(=O)N[C@H](C(=O)N[C@@H](CC(N)=O)C(=O)N[C@@H](CC(N)=O)C(=O)N[C@@H](CCCCN)C(=O)N[C@@H](CCCCN)C(=O)N[C@@H](CCCCN)C(=O)O)[C@@H](C)O [Sur113L2]
HLA-A3
  binding to HLA-A3, in words: only bound weakly
  EC50: > 100 µM

## CC[C@H](C)[C@H](NC(=O)[C@@H](N)[C@@H](C)O)C(=O)N[C@@H](CCCNC(=N)N)C(=O)N[C@@H](CCCNC(=N)N)C(=O)N[C@@H](CCCCN)C(=O)N[C@@H](CC(N)=O)C(=O)N[C@@H](CC(C)C)C(=O)N[C@@H](CCCNC(=N)N)C(=O)N[C@@H](CCCCN)C(=O)O [SurEx3-A3-1]
HLA-A3
  EC50: 0.5 µM

## CAFLSVKKQF [Sur 84-93]
HLA-A3
  EC50: > 100 µM

## ETAKKVRRAI [Sur10]
HLA-A2; Example 1, Table 1
  C50 (peptide concentration for half maximal binding to HLA-A2): did not bind; also recorded: Not binding

## FLKDHRISTF [Sur 13-22]
HLA-A3
  EC50: > 100 µM

## FLKDHRISTK [Sur13K9]
HLA-A3
  binding to HLA-A3, in words: no detectable effect
  EC50: > 100 µM

## FLKLDRERAK [Sur 101-110]
HLA-A3
  EC50: > 100 µM

## IAKETNNKKK [Sur 113-122]
HLA-A3
  EC50: > 100 µM

## KLDRERAKNK [Sur 103-112]
HLA-A3
  EC50: > 100 µM

## KLDRERAKNKI [Sur103-113]
HLA-A2; Example 4
  C50 (half maximal recovery of HLA-A2): did not bind
HLA-A2; [3]
  EC50: > 100 µM

## PTENEPDLAQ [Sur47-56]
[1]; HLA-A1, ten melanoma patients, data not shown
  ELISPOT response: no peptide-specific responses were detected

## PTIRRKNLRK [SurEx3-A3-2]
HLA-A3
  EC50: > 100 µM

## PTLPPAWQPFL [Sur4-14]
HLA-A2; Example 4
  C50 (half maximal recovery of HLA-A2): did not bind
HLA-A2; [3]
  EC50: > 100 µM

## RAIEQLAAM [Sur2]
HLA-A2; Example 1, Table 1
  C50 (peptide concentration for half maximal binding to HLA-A2): did not bind; also recorded: Not binding

## RISTFKNWPF [Sur 18-27]
HLA-A3
  EC50: > 100 µM

## RITREEHKK [Sur2b-A3-1]
HLA-A3
  EC50: > 100 µM

## STFKNWPFL [Sur4]
HLA-A2; Example 1, Table 1
  C50 (peptide concentration for half maximal binding to HLA-A2): did not bind; also recorded: Not binding

## SVKKQFEEL [Sur5]
HLA-A2; Example 1, Table 1
  C50 (peptide concentration for half maximal binding to HLA-A2): did not bind; also recorded: Not binding

## SVKKQFEELTL [Sur88-98]
HLA-A2; Example 4
  C50 (half maximal recovery of HLA-A2): did not bind
HLA-A2; [3]
  EC50: > 100 µM

## TAKKVRRAI [Sur7]
HLA-A2; Example 1, Table 1
  C50 (peptide concentration for half maximal binding to HLA-A2): did not bind; also recorded: Not binding

## TLPPAWQPF [Sur 5-13]
HLA-A3
  EC50: > 100 µM
